Measurements published in US8003659B2, “Macrocyclic serine protease inhibitors” (Indenix Pharmaceuticals, Inc., priority 2008, dated 2011).
Like-named read-outs stand apart in the source and are kept apart here.

What was measured:
GS4.1 cells = assay: Cytotoxicity evaluation (Cell Titer 96 AQueous One Solution Cell Proliferation Assay); assay type: cell-based; conditions: cellular viability
Procedure: (§1) For cytotoxicity evaluation, GS4.1 cells were treated with compounds as described above and cellular viability was monitored using the Cell Titer 96 AQueous One Solution Cell Proliferation Assay (Promega). CC50 values were determined from the % cytotoxicity versus concentration data with Tecan Magellan software as described above.

HCV NS3-NS4A protease = biological target: T1, HCV NS3-NS4A protease (Hepatitis C virus genotype 1b, UniProt P26663); assay: HCV Protease Assay (SensoLyte 620 HCV Protease Assay kit); assay type: biochemical; conditions: 1.2 nM HCV NS3-NS4A protease, 60 min at room temperature, 5% DMSO
T1 construct: made in house
Summary of the method: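 Protease at 1.2 nM, run with the SensoLyte 620 fluorogenic kit under supplier conditions, with compounds at several concentrations in buffer with 5% final DMSO. Reactions ran 60 min at room temperature before fluorescence reading; IC50 from four-parameter sigmoidal fit of percent inhibition.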

[1] = test system: Huh-7 cells containing HCV Con1 subgenomic replicon (GS4.1 cells); assay: HCV Replicon Assay (NS4A ELISA); assay type: cell-based; conditions: NS4A protein by ELISA
Summary of the method: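 GS4.1 cells (Huh-7 with HCV Con1 subgenomic replicon) given ten 2-fold compound dilutions (top 75 μM) or a single 15 μM dose in 0.5% DMSO for 72 h at 37 °C. NS4A measured by cell ELISA (A492); EC50 from four-parameter sigmoidal fit, single-dose results as % inhibition at 15 μM.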

[2] = Cytotoxicity evaluation (Cell Titer 96 AQueous One Solution Cell Proliferation Assay); assay type: cell-based; conditions: human; GS4.1 cells, cellular viability
Procedure: as §1

[3] = Cytotoxicity (CC50) in the genotype 1b replicon assay; assay type: cell-based; conditions: human, GS4.1 cells; genotype 1b replicon assay as described in Example 32
Procedure: as §1
(§2) Compounds were tested in a genotype 1b replicon assay as described in Example 32 and the results are summarized in Table 6, wherein A represents a value smaller than 1 μM, and B represents a value between 1 μM to 10 μM, C represents a value between 10 μM to 75 μM and D represents a value greater than 75 μM.

genotype 1b replicon = assay: Antiviral activity in a genotype 1b replicon assay; assay type: cell-based, HCV; conditions: Hepatitis C virus; genotype 1b replicon assay as described in Example 32; read-out: EC50
Procedure: General procedure: Huh-7 cells containing HCV Con1 subgenomic replicon (GS4.1 cells) were grown in Dulbecco's Modified Eagle Medium (DMEM) supplemented with 10% fetal bovine serum (FBS), 2 mM L-glutamine, 110 mg/L sodium pyruvate, 1× non-essential amino acids, 100 U/mL penicillin-streptomycin, and 0.5 mg/mL G418 (Invitrogen). For dose-response testing, the cells were seeded in 96-well plates at 7.5×10^3 cells/well in a volume of 50 μL, and incubated at 37° C./5% CO2. Three hours after plating, 50 μL of ten 2-fold serial dilutions of compounds (highest concentration, 75 μM) were added, and cell cultures were incubated at 37° C./5% CO2 in the presence of 0.5% DMSO. Alternatively, compounds were tested at a single concentration of 15 μM. In all cases, Huh-7 cells lacking the HCV replicon served as negative control. The cells were incubated in the presence of compounds for 72 hr after which they were monitored for expression of the NS4A protein by enzyme-linked immunosorbent assay (ELISA). For this, the plates were then fixed for 1 min with acetone/methanol (1:1, v/v), washed twice with phosphate-buffered saline (PBS), 0.1% Tween 20, blocked for 1 hr at room temperature with TNE buffer containing 10% FBS and then incubated for 2 hr at 37° C. with the anti-NS4A mouse monoclonal antibody A-236 (ViroGen) diluted in the same buffer. After washing three times with PBS, 0.1% Tween 20, the cells were incubated 1 hr at 37° C. with anti-mouse immunoglobulin G-peroxidase conjugate in TNE, 10% FBS. After washing as described above, the reaction was developed with O-phenylenediamine (Zymed). The reaction was stopped after 30 min with 2 NH2SO4, and absorbance was read at 492 nm using Sunrise Tecan spectrophotometer. EC50 values were determined from the % inhibition versus concentration data using a sigmoidal non-linear regression analysis based on four parameters with Tecan Magellan software. When screening at a single concentration, the results were expressed as % inhibition at 15 μM.
as §2

[4] = test system: HCV genotype 2a infectious virus; assay: HCV genotype 2a infectious virus assay; assay type: cell-based, HCV (strain JFH-1; genotype 2a); conditions: Hepatitis C virus
Procedure: Compounds were tested in a HCV genotype 2a infectious virus assay and the results are summarized in Table 7, wherein A represents a value smaller than 1 μM, and B represents a value between 1 μM to 10 μM, C represents a value between 10 μM to 75 μM and D represents a value greater than 75 μM.
The HCV in vitro infection core ELISA assay measures the ability of a test compound to inhibit replication of an infectious HCV (strain JFH-1; genotype 2a) in cell culture. […] We have developed this model for determining the efficacy of antiviral compounds against an infectious virus in vitro using HCV producing cells (HPC), a proprietary Huh-7-derived cell sublineage capable of propagating the JFH-1 HCV virus. The readout of the assay is quantification of HCV core protein by ELISA 5 days post infection with JFH-1 virus and treatment with a test compound.
Ninety-six-well Corning Costar plates were seeded with HPC cells at a density of 3.0×10^3 cells per well in 50 μL of Huh-7 media. Compound stock solutions were made up freshly in Huh-7 media (DMEM (containing glucose, L-glutamine and sodium pyruvate), 10% FBS, 100 IU/mL penicillin, 100 μg/mL streptomycin, 2 mM GlutaMAX, 1% MEM non-essential amino acids) as 2× stock. Seven additional 3-fold drug dilutions were prepared from the 2× stocks in Huh-7 media. At least 4 hours after HPC cells were seeded, the media in the 96-well culture plates was aspirated and 50 μL of each drug dilution and 50 μL of JFH-1 HCV was added to each well.
At 16 hrs post treatment and infection, the virus inoculum was removed by aspiration. The cultures were treated at the same final concentrations of drug diluted to 1× in Huh-7 media to a final volume of 200 μL. Cells were incubated in the presence of drug for 4 additional days at 37° C./5% CO2.
Media was removed from the plates by aspiration. Cells were fixed with 250 μL 1:1 acetone:methanol for 90 seconds, washed once in PBS and then three times with 1×KPL wash solution. The assay plates were then blocked with 150 μL/well 10% FBS-TNE (50 mM Tris-HCl (pH 7.5; Sigma), 100 mM NaCl, 1 mM EDTA with 10% FBS) for 1 hr at room temperature. Cells were washed three times with 1×KPL wash solution and incubated with 100 μL/well anti-hepatitis C core mAb (1 mg/mL stock diluted 1:500 in 10% FBS-TNE) for 2 hours at 37° C. Cells were washed three times with 1×KPL wash solution and incubated with 100 μL/well HRP-goat anti-mouse antibody (diluted 1:2,500 in 10% FBS-TNE) for 1 hr at 37° C.
OPD solution was prepared using 1 OPD tablet+12 mL citrate/phosphate buffer (16 mM citric acid, 27 mM Na2HPO4) plus 5 μL 30% H2O2 per plate. Cells were washed three times with 1×KPL wash solution and developed with 100 μL/well OPD solution for 30 minutes in the dark at room temperature. The reaction was stopped with 100 μL/well of 2NH2SO4, and absorbance measured at A490 nm in a Victor^3 V 1420 multilabel counter (Perkin Elmer). The EC50 values for each compound were calculated from dose response curves from the resulting best-fit equations determined by Microsoft Excel and XLfit 4.1 software. The negative control for inhibition of virus replication was untreated HPC cells infected with the JFH-1 HCV virus strain. The negative ELISA control was untreated, uninfected HPC cells. The positive ELISA control was untreated HPC cells infected the JFH-1 HCV virus strain.

[5] = rcm bond, 14-membered ring, DCE
[6] = Hepatitis C virus, Huh-7, 72 hr

T1 sequence (P26663 1027-1208): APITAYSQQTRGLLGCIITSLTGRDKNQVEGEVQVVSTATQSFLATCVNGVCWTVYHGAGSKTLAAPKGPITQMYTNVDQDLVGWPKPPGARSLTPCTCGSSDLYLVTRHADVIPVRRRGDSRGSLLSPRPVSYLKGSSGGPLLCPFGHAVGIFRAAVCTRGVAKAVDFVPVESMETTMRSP

Compound | CC50 (GS4.1 cells) [nM] | IC50 (HCV NS3-NS4A protease) [nM] | EC50 ([1]; 72 hr) [nM] | also measured
COc1ccc2c(O[C@@H]3C[C@H]4C(=O)N(C)CCCCC/C=C\[C@@H]5C[C@@]5(C(=O)NS(=O)(=O)C5(C)CC5)NC(=O)N4C3)cc(-c3nc(C(C)C)cs3)nc2c1C [Compound 76a, (Z)-(4R,6S,16S,18R)-[2,15-dioxo-18-[7-methoxy-8-methyl-2-(4-isopropylthiazol-2-yl)quinolin-4-yloxy]-14-N-methyl-1,3,14-triazatricyclo[14.3.0.0]nonadec-7-en-4-yl]carbonyl(1-methyl-cyclopropyl)sulfonamide] | > 75000 | 1000 to 10000 | 1000 to 10000 | 
COc1ccc2c(O[C@H]3C[C@H]4C(=O)N(C)CCCC/C=C\[C@@H]5C[C@@]5(C(=O)NS(=O)(=O)C5CC5)NC(=O)N4C3)cc(-c3nc(C(F)(F)F)cs3)nc2c1C [Compound 69b, (Z)-(4R,6S,15S,17S)-[17-[7-methoxy-8-methyl-2-(4-trifluoromethythiazol-2-yl)quinolin-4-yloxy]-13-N-methyl-2,14-dioxo-1,3,13-triazatricyclo[13.3.0.0]octadec-7-en-4-yl]carbonyl(cyclopropyl)sulfonamide] |  | < 1000 |  | CC50 [2]: > 75000 nM; EC50 [1, 6]: < 1000 nM; CC50 [3]: > 75000 nM; EC50 (genotype 1b replicon): < 1000 nM; EC50 [4]: < 1000 nM
COc1ccc2c(O[C@H]3C[C@H]4C(=O)N(C)CCCC/C=C\[C@@H]5C[C@@]5(C(=O)NS(=O)(=O)C5(C)CC5)NC(=O)N4C3)cc(-c3nc(C(F)(F)F)cs3)nc2c1C [Compound 68b, (Z)-(4R,6S,15S,17S)-[17-[7-methoxy-8-methyl-2-(4-trifluoromethythiazol-2-yl)quinolin-4-yloxy]-13-N-methyl-2,14-dioxo-1,3,13-triazatricyclo[13.3.0.0]octadec-7-en-4-yl]carbonyl(1-methylcyclopropyl)sulfonamide] |  | < 1000 |  | ring closure, isolated yield ([5]; from C=CCCCCN(C)C(=O)[C@@H]1C[C@H](Oc2cc(-c3nc(C(F)(F)F)cs3)nc3c(C)c(OC)ccc23)CN1C(=O)N[C@]1(C(=O)NS(=O)(=O)C2(C)CC2)C[C@H]1C=C, Zhan 1B (8%), 4.9 mM, 75.0 °C, 4.33 h): 30%; CC50 [2]: > 75000 nM; EC50 [1, 6]: < 1000 nM; CC50 [3]: 10000 to 75000 nM; EC50 (genotype 1b replicon): < 1000 nM; EC50 [4]: < 1000 nM
COc1ccc2c(O[C@@H]3C[C@H]4C(=O)N(C)CCCCCC/C=C\[C@@H]5C[C@@]5(C(=O)NS(=O)(=O)C5(C)CC5)NC(=O)N4C3)cc(-c3nc(C(C)C)cs3)nc2c1C [Compound 76b] | > 75000 | < 1000 | 1000 to 10000 | 
COc1ccc2c(O[C@H]3C[C@H]4C(=O)N(C)CCCC/C=C\[C@@H]5C[C@@]5(C(=O)NS(=O)(=O)C5CC5)NC(=O)N4C3)cc(-c3csc(C#N)n3)nc2c1Cl [Compound T1, (Z)-(4R,6S,15S,17S)-[17-[8-chloro-7-methoxy-2-(2-cyanothiazol-4-yl)quinolin-4-yloxy]-13-N-methyl-2,14-dioxo-1,3,13-triazatricyclo-[13.3.0.0]octadec-7-en-4-yl]carbonyl-(cyclopropyl)sulfonamide] | 10000 to 75000 | < 1000 | < 1000 | 
COc1ccc2c(O[C@H]3C[C@H]4C(=O)N(C)CCCCC=C[C@@H]5C[C@@]5(C(=O)NS(=O)(=O)C5CC5)NC(=O)N4C3)cc(-n3ccc(C(F)(F)F)n3)nc2c1Cl |  |  |  | ring closure, isolated yield ([5]; from C=CCCCCN(C)C(=O)[C@@H]1C[C@H](Oc2cc(-n3ccc(C(F)(F)F)n3)nc3c(Cl)c(OC)ccc23)CN1C(=O)N[C@]1(C(=O)NS(=O)(=O)C2CC2)C[C@H]1C=C, Zhan 1B, 1.0 mM, 60.0 °C, 18.0 h): 40%
COc1ccc2c(O[C@H]3C[C@H]4C(=O)N(C)CCCC/C=C\[C@@H]5C[C@@]5(C(=O)NS(=O)(=O)C5(C)CC5)NC(=O)N4C3)cc(-c3csc(C#N)n3)nc2c1Cl [Compound T2, (Z)-(4R,6S,15S,17S)-[17-[8-chloro-7-methoxy-2-(2-cyanothiazol-4-yl)quinolin-4-yloxy]-13-N-methyl-2,14-dioxo-1,3,13-triazatricyclo-[13.3.0.0]octadec-7-en-4-yl]carbonyl-(1-methylcyclopropyl)sulfonamide] | > 75000 | < 1000 | < 1000 | 
CCOC(=O)[C@@]12C[C@@H]1C=CCCCCN(C)C(=O)[C@@H]1C[C@@H](O[Si](C)(C)C(C)(C)C)CN1C(=O)N2 |  |  |  | ring closure, isolated yield ([5]; from C=CCCCCN(C)C(=O)[C@@H]1C[C@@H](O[Si](C)(C)C(C)(C)C)CN1C(=O)N[C@]1(C(=O)OCC)C[C@@H]1C=C, Hoveyda-Grubbs II (6%), 1.9 mM, 3.0 h): 51%
